Measured values published in patent US20200079765A1, “SUBSTITUTED HETEROARYL PYRROLONES AND SALTS THEREOF AND USE THEREOF AS HERBICIDAL ACTIVE SUBSTANCES” (Bayer CropScience Aktiengesellschaft, priority 2016, published 2020).

Assays:
Format in all cases: in vivo
Abutilon theophrasti [1] = experiment: Post-emergence herbicidal action (Experimental Part 1, A); conditions: about 3 weeks after treatment, 100% = plants have died, 0% = like control plants
Protocol: (§1) Seeds of monocotyledonous and dicotyledonous weeds and crop plants were placed in sandy loam in plastic or wood-fiber pots, covered with soil and cultivated in a greenhouse under controlled growth conditions. 2 to 3 weeks after sowing, the test plants were treated at the one-leaf stage. The compounds of the invention, formulated in the form of wettable powders (WP) or as emulsion concentrates (EC), were then sprayed onto the green parts of the plants as aqueous suspension or emulsion with addition of 0.5% additive at a water application rate of 600 l/ha (converted). After the test plants had been kept in the greenhouse under optimum growth conditions for about 3 weeks, the activity of the preparations was rated visually in comparison to untreated controls. For example, 100% activity=the plants have died, 0% activity=like control plants. Tables A1 to A14 below show the effects of selected compounds of the general formula (I) according to Tables I.1 to I.116 on various harmful plants and an application rate corresponding to 1280 g/ha or 320 g/ha, which were obtained by the experimental procedure mentioned above.

Alopecurus myosuroides [2] = experiment: as above; conditions: about 3 weeks after treatment, 100% = plants have died, 0% = like control plants
Protocol: as §1

Amaranthus retroflexus [3] = experiment: as above; conditions: about 3 weeks after treatment, 100% = plants have died, 0% = like control plants
Protocol: as §1

Avena fatua [4] = experiment: as above; conditions: rated visually after about 3 weeks
Protocol: as §1

Echinochloa crus-galli [5] = experiment: as above; conditions: about 3 weeks after treatment, 100% = plants have died, 0% = like control plants
Protocol: as §1

Hordeum murinum [6] = experiment: as above; conditions: application rate 1280 g/ha, rated visually after about 3 weeks
Protocol: as §1

Ipomoea purpurea [7] = experiment: as above; conditions: application rate 1280 g/ha, rated visually after about 3 weeks
Protocol: as §1

Lolium rigidum [8] = experiment: as above; conditions: application rate 1280 g/ha, rated visually after about 3 weeks
Protocol: as §1

Matricaria inodora [9] = experiment: as above; conditions: rated visually after about 3 weeks
Protocol: as §1

Polygonum convolvulus [10] = experiment: as above; conditions: rated visually after about 3 weeks
Protocol: as §1

Setaria viridis [11] = experiment: as above; conditions: about 3 weeks after treatment, 100% = plants have died, 0% = like control plants
Protocol: as §1

Stellaria media [12] = experiment: as above; conditions: rated visually after about 3 weeks
Protocol: as §1

Veronica persica [13] = experiment: as above; conditions: application rate 1280 g/ha, about 3 weeks after treatment, 100% = plants have died, 0% = like control plants
Protocol: as §1

Viola tricolor [14] = experiment: as above; conditions: rated visually after about 3 weeks
Protocol: as §1

Abutilon theophrasti [15] = experiment: Pre-emergence herbicidal action (Experimental Part 1, B); conditions: scored visually after about 3 weeks
Description: (§2) Seeds of monocotyledonous and dicotyledonous weed plants and crop plants were placed in plastic or organic planting pots and covered with soil. The compounds of the invention, formulated in the form of wettable powders (WP) or as emulsion concentrates (EC), were then applied onto the surface of the covering soil as aqueous suspension or emulsion with addition of 0.5% additive at a water application rate of 600 l/ha (converted). After the treatment, the pots were placed in a greenhouse and kept under good growth conditions for the test plants. After about 3 weeks, the effect of the preparations was scored visually in comparison with untreated controls as percentages. For example, 100% activity=the plants have died, 0% activity=like control plants. Tables B1 to B14 below show the effects of selected compounds of the general formula (I) according to Tables I.1 to I.116 on various harmful plants and an application rate corresponding to 1280 g/ha or 320 g/ha, which were obtained by the experimental procedure mentioned above.

Alopecurus myosuroides [16] = experiment: as above; conditions: scored visually after about 3 weeks
Description: as §2

Amaranthus retroflexus [17] = experiment: as above; conditions: scored visually after about 3 weeks
Description: as §2

Avena fatua [18] = experiment: as above; conditions: scored visually after about 3 weeks
Description: as §2

Echinochloa crus-galli [19] = experiment: as above; conditions: application rate 1280 g/ha, scored visually after about 3 weeks
Description: as §2

Hordeum murinum [20] = experiment: as above; conditions: scored visually after about 3 weeks
Description: as §2

Ipomoea purpurea [21] = experiment: as above; conditions: application rate 1280 g/ha, scored visually after about 3 weeks
Description: as §2

Lolium rigidum [22] = experiment: as above; conditions: application rate 1280 g/ha, scored visually after about 3 weeks
Description: as §2

Matricaria inodora [23] = experiment: as above; conditions: scored visually after about 3 weeks
Description: as §2

Polygonum convolvulus [24] = experiment: as above; conditions: scored visually after about 3 weeks
Description: as §2

Setaria viridis [25] = experiment: as above; conditions: scored visually after about 3 weeks
Description: as §2

Stellaria media [26] = experiment: as above; conditions: scored visually after about 3 weeks
Description: as §2

Veronica persica [27] = experiment: as above; conditions: application rate 1280 g/ha, scored visually after about 3 weeks
Description: as §2

Viola tricolor [28] = experiment: as above; conditions: scored visually after about 3 weeks
Description: as §2

CC(=O)OC1C(C)=CC(=O)N1c1cc(C(C)(C)C)on1 (stereo not drawn) [I.3-162]
herbicidal activity on Abutilon theophrasti (visual rating vs untreated controls) (Abutilon theophrasti [1]; application rate 320 g/ha): 100% | herbicidal activity on Abutilon theophrasti (visual rating vs untreated controls) (Abutilon theophrasti [1]; application rate 1280 g/ha): 100% | herbicidal activity on Alopecurus myosuroides (visual rating vs untreated controls) (Alopecurus myosuroides [2]; application rate 320 g/ha): 100% | herbicidal activity on Alopecurus myosuroides (visual rating vs untreated controls) (Alopecurus myosuroides [2]; application rate 1280 g/ha): 100% | herbicidal activity on Amaranthus retroflexus (visual rating vs untreated controls) (Amaranthus retroflexus [3]; application rate 320 g/ha): 90% | herbicidal activity on Amaranthus retroflexus (visual rating vs untreated controls) (Amaranthus retroflexus [3]; application rate 1280 g/ha): 100% | Avena fatua, herbicidal activity (Avena fatua [4]; application rate 320 g/ha): 90% | Avena fatua, herbicidal activity (Avena fatua [4]; application rate 1280 g/ha): 90% | herbicidal activity on Echinochloa crus-galli (visual rating vs untreated controls) (Echinochloa crus-galli [5]; application rate 320 g/ha): 90% | herbicidal activity on Echinochloa crus-galli (visual rating vs untreated controls) (Echinochloa crus-galli [5]; application rate 1280 g/ha): 100% | Hordeum murinum, herbicidal activity (Hordeum murinum [6]): 100% | Ipomoea purpurea, herbicidal activity (Ipomoea purpurea [7]): 90% | Lolium rigidum, herbicidal activity (Lolium rigidum [8]): 90% | Matricaria inodora, herbicidal activity (Matricaria inodora [9]; application rate 320 g/ha): 100% | Matricaria inodora, herbicidal activity (Matricaria inodora [9]; application rate 1280 g/ha): 100% | Polygonum convolvulus, herbicidal activity (Polygonum convolvulus [10]; application rate 320 g/ha): 100% | Polygonum convolvulus, herbicidal activity (Polygonum convolvulus [10]; application rate 1280 g/ha): 100% | herbicidal activity on Setaria viridis (visual rating vs untreated controls) (Setaria viridis [11]; application rate 320 g/ha): 100% | herbicidal activity on Setaria viridis (visual rating vs untreated controls) (Setaria viridis [11]; application rate 1280 g/ha): 100% | Stellaria media, herbicidal activity (Stellaria media [12]; application rate 320 g/ha): 100% | Stellaria media, herbicidal activity (Stellaria media [12]; application rate 1280 g/ha): 100% | herbicidal activity on Veronica persica (visual rating vs untreated controls) (Veronica persica [13]): 100% | Viola tricolor, herbicidal activity (Viola tricolor [14]; application rate 320 g/ha): 100% | Viola tricolor, herbicidal activity (Viola tricolor [14]; application rate 1280 g/ha): 100% | Abutilon theophrasti, herbicidal activity (Abutilon theophrasti [15]; application rate 320 g/ha): 100% | Abutilon theophrasti, herbicidal activity (Abutilon theophrasti [15]; application rate 1280 g/ha): 100% | Alopecurus myosuroides, herbicidal activity (Alopecurus myosuroides [16]; application rate 320 g/ha): 90% | Alopecurus myosuroides, herbicidal activity (Alopecurus myosuroides [16]; application rate 1280 g/ha): 90% | Amaranthus retroflexus, herbicidal activity (Amaranthus retroflexus [17]; application rate 320 g/ha): 100% | Amaranthus retroflexus, herbicidal activity (Amaranthus retroflexus [17]; application rate 1280 g/ha): 100% | Avena fatua, herbicidal activity (Avena fatua [18]; application rate 320 g/ha): 90% | Avena fatua, herbicidal activity (Avena fatua [18]; application rate 1280 g/ha): 90% | Echinochloa crus-galli, herbicidal activity (Echinochloa crus-galli [19]): 100% | Hordeum murinum, herbicidal activity (Hordeum murinum [20]; application rate 320 g/ha): 90% | Hordeum murinum, herbicidal activity (Hordeum murinum [20]; application rate 1280 g/ha): 100% | Ipomoea purpurea, herbicidal activity (Ipomoea purpurea [21]): 90% | Lolium rigidum, herbicidal activity (Lolium rigidum [22]): 90% | Matricaria inodora, herbicidal activity (Matricaria inodora [23]; application rate 320 g/ha): 100% | Matricaria inodora, herbicidal activity (Matricaria inodora [23]; application rate 1280 g/ha): 100% | Polygonum convolvulus, herbicidal activity (Polygonum convolvulus [24]; application rate 320 g/ha): 100% | Polygonum convolvulus, herbicidal activity (Polygonum convolvulus [24]; application rate 1280 g/ha): 100% | Setaria viridis, herbicidal activity (Setaria viridis [25]; application rate 320 g/ha): 100% | Setaria viridis, herbicidal activity (Setaria viridis [25]; application rate 1280 g/ha): 100% | Stellaria media, herbicidal activity (Stellaria media [26]; application rate 320 g/ha): 90% | Stellaria media, herbicidal activity (Stellaria media [26]; application rate 1280 g/ha): 100% | Veronica persica, herbicidal activity (Veronica persica [27]): 100% | Viola tricolor, herbicidal activity (Viola tricolor [28]; application rate 320 g/ha): 100% | Viola tricolor, herbicidal activity (Viola tricolor [28]; application rate 1280 g/ha): 100%
